Data taken from patent US20260165988A1, “PHARMACEUTICAL COMPOSITION FOR PREVENTING OR TREATING HEARING LOSS COMPRISING AMMONIUM LACTATE AS ACTIVE INGREDIENT” (KOREA UNIVERSITY RESEARCH AND BUSINESS FOUNDATION, priority 2022, published 2026).

System: hair cells in the lateral line of zebrafish
Assay: Analysis of hair cells in zebrafish larvae: protection against gentamicin-induced hair cell damage
Format: in vivo
Method: Zebrafish larvae (Wild type, Brn3c: EGFP, etc.) were cultured in the breeding room of our research institute. Each larva was cultured in embryo medium (15 mM NaCl, 0.5 mM KCl, 1 mM CaCl2, 1 mM MgSO4, 0.15 mM KH2PO4, 0.05 mM […], and 0.7 mM NaHCO3).
Gentamicin, an ototoxicity-inducing substance, was administered to zebrafish 5 days after fertilization, and the concentration of […] (LC 50) that induces 50% damage to hair cells in the lateral line of zebrafish as well as the time were determined. In the study results, 50 μM gentamicin was chosen since approximately 50% of the hair cells were damaged when administered for 1 hour. The effect was observed when 10 μM, 100 μM, 500 μM, and 1000 μM ammonium lactate were co-administered with 50 μM gentamicin for 1 hour.
There were four sites in hair cells of zebrafish, including orbits (SO1 and SO2), ear (O1), and larynx (OC1), and the number of hair cells was analyzed using a microscope (fluorescence microscope, confocal microscope, etc.). The effects of candidate substances capable of suppressing damage to hair cells caused by gentamicin were compared and analyzed by administering the candidate substances to zebrafish larvae at different concentrations.
To verify the protective effect of ammonium lactate on hair cells in zebrafish, ammonium lactate and gentamicin were co-administered to zebrafish, and the viability of hair cells was compared with that of the control group.

Compound | viability of hair cells (trend) (10 μM, 100 μM, 500 μM and 1000 μM ammonium lactate co-administered with 50 μM gentamicin) | increase in the viability of hair cells (100 μM ammonium lactate + 50 μM gentamicin) | number of hair cells (100 μM ammonium lactate co-administered with 50 μM gentamicin for 1 hour, gentamicin only 26) | increase in the viability of hair cells (500 μM ammonium lactate + 50 μM gentamicin) | number of hair cells (500 μM ammonium lactate co-administered with 50 μM gentamicin for 1 hour, gentamicin only 26) | increase in the viability of hair cells (1000 μM ammonium lactate + 50 μM gentamicin) [%] | number of hair cells (1000 μM ammonium lactate co-administered with 50 μM gentamicin for 1 hour, gentamicin only 26) | protective effect on hair cells (conclusion) (zebrafish, gentamicin-induced damage) | hair cells damaged (50 μM gentamicin administered for 1 hour, zebrafish 5 days after fertilization) | decrease in the viability of hair cells (50 μM gentamicin only vs untreated control) [%] | number of hair cells (50 μM gentamicin only, no ammonium lactate, untreated control 53)
CC(O)C(=O)O.N (centres unmarked) [ammonium lactate] | increased in a concentration-dependent manner | approximately 10% | 28 | approximately 10% | 29 | ≥ 60 | 42 | has a protective effect on hair cells | – | – | –
gentamicin [reference compound] | – | – | – | – | – | – | – | – | approximately 50% | 50 | 26
